In data set [1] the target is T1, Human Neuropeptide Y2 Receptor (Homo sapiens, UniProt P49146).
T1 construct: purchased CHEMICON HTS066M
T1 sequence (P49146 1-381): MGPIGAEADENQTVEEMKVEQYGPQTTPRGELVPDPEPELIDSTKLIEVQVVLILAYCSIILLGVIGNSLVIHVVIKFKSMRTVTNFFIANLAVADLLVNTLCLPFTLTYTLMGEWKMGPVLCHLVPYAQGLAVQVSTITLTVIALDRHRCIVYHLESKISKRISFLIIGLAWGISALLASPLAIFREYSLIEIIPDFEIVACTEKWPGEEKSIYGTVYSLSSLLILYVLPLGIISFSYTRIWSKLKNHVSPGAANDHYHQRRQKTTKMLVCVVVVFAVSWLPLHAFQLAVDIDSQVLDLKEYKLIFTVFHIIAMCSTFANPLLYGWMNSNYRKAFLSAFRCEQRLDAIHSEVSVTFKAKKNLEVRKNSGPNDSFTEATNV
The experiment in a line: Radioligand binding competition assay (RLB). The following applies: Table 3, 125I-PYY(1-36) competition; read-out: Ki. The essentials: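 Peptides were serially diluted from 1 mM DMSO stocks and competed for radioligand binding to receptor membranes (0.5 μg/well) over 2 h at room temperature, pH 7.4 HEPES buffer. Bound radioactivity on filters was counted by scintillation, and IC50 was derived by nonlinear regression.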

A short description of another data set: Solubility determination. The essentials:
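Sample: TFA-salt peptide at 10 mg/ml target in 0.1 M Na diphosphate, pH 6.4 or 7.0, shaken 2 h RT, filtered, diluted to 1 mg/ml.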

Molecules are shown by their SMILES. *1 amine or outer side, *2 acyl side, *3 side chain or, on linkers, in order; H or OH if unused. Where a SMILES comes first, the peptide text is derived from it. Side-chain parts run from the residue outwards. The star is where a group is joined. C18 diacid = O=C(O)CCCCCCCCCCCCCCCCC(=O)*; γGlu = O=C(O)[C@H](CCC(=O)[*:2])N[*:1]; Isovaleryl = CC(C)CC(=O)*; Ahx = NCCCCCC(=O)O

Take `CC(C)CC(=O)N[C@@H](C)C(=O)N1CCC[C@H]1C(=O)N[C@@H](CCC(=O)O)C(=O)N[C@@H](CCCCNC(=O)CCCCCNC(=O)CC[C@H](NC(=O)CCCCCCCCCCCCCCCCC(=O)O)C(=O)O)C(=O)N1CCC[C@H]1C(=O)N[C@@H](CCC(=O)O)C(=O)N[C@@H](CCC(=O)O)C(=O)N[C@@H](CC(=O)O)C(=O)N[C@@H](C)C(=O)N[C@H](C(=O)N1CCC[C@H]1C(=O)N[C@@H](CCC(=O)O)C(=O)N[C@@H](CCC(=O)O)C(=O)N[C@@H](CC(C)C)C(=O)N[C@@H](CCC(N)=O)C(=O)N[C@@H](CCCNC(=N)N)C(=O)N[C@@H](Cc1ccc(O)cc1)C(=O)N[C@@H](Cc1ccc(O)cc1)C(=O)N[C@H](C(=O)N[C@@H](CO)C(=O)N[C@@H](CC(C)C)C(=O)N[C@@H](CCCNC(=N)N)C(=O)N[C@@H](Cc1c[nH]cn1)C(=O)N[C@@H](Cc1ccc(O)cc1)C(=O)N[C@@H](Cc1ccc(O)cc1)C(=O)N[C@@H](CC(N)=O)C(=O)N[C@@H](Cc1c[nH]c2ccccc12)C(=O)N[C@@H](CC(C)C)C(=O)N[C@H](C(=O)N[C@@H](CCCCN)C(=O)N[C@@H](CCC(N)=O)C(=O)N[C@@H](CCCNC(=N)N)C(=O)N[C@@H](Cc1ccc(O)cc1)C(N)=O)[C@@H](C)O)C(C)C)[C@@H](C)O` [Compound 180, N{alpha-4}-(3-methylbutanoyl)-N{epsilon-7}-(6-[(4S)-4-carboxy-4-(17-carboxyheptadecanamido)butanamido]hexanoyl)-[4A,7K,9E,13T,18Q,22V,28Y,30W,31L,33K]-hPYY(4-36)]: the inhibitory constant (Ki) in data set [1] stood at 15.1 nM. In addition, the “Sol6” value in “Solubility determination” (solubility in the pH 6 condition, measured pH printed in the next column (6.0-6.3)) worked out at 9.9 mg/mL. The “Sol7” value in the data set “Solubility determination” (solubility in the pH 7 condition, measured pH printed in the next column (6.6-6.9)) was 10.0 mg/mL.
For `CC[C@H](C)[C@H](NC(=O)[C@H](Cc1ccc(O)cc1)NC(=O)[C@H](Cc1ccc(O)cc1)NC(=O)[C@H](CCCNC(=N)N)NC(=O)[C@H](CCC(N)=O)NC(=O)[C@H](CC(C)C)NC(=O)[C@H](CCC(=O)O)NC(=O)[C@H](CCC(=O)O)NC(=O)[C@@H]1CCCN1C(=O)[C@@H](NC(=O)[C@H](C)NC(=O)[C@H](CC(=O)O)NC(=O)[C@H](C)NC(=O)[C@H](CCC(=O)O)NC(=O)[C@@H]1CCCN1C(=O)[C@H](CCCCNC(=O)CCCCCNC(=O)CC[C@H](NC(=O)CCCCCCCCCCCCCCCCC(=O)O)C(=O)O)NC(=O)[C@H](CCC(=O)O)NC(=O)[C@@H]1CCCN1C(=O)[C@H](C)NC(=O)CC(C)C)[C@@H](C)O)C(=O)N[C@@H](C)C(=O)N[C@@H](CC(C)C)C(=O)N[C@@H](CCCNC(=N)N)C(=O)N[C@@H](Cc1c[nH]cn1)C(=O)N[C@@H](Cc1ccc(O)cc1)C(=O)N[C@@H](Cc1ccc(O)cc1)C(=O)N[C@@H](CC(N)=O)C(=O)N[C@@H](Cc1c[nH]c2ccccc12)C(=O)N[C@@H](CC(C)C)C(=O)N[C@H](C(=O)N[C@@H](CCCNC(=N)N)C(=O)N[C@@H](CCC(N)=O)C(=O)N[C@@H](CCCNC(=N)N)C(=O)N[C@@H](Cc1ccc(O)cc1)C(N)=O)[C@@H](C)O` [Compound 100, N{alpha-4}-(3-methylbutanoyl)-N{epsilon-7}-(6-[(4S)-4-carboxy-4-(17-carboxyheptadecanamido)butanamido]hexanoyl)-[4A,7K,9E,10A,13T,18Q,22I,23A,28Y,30W,31L]-hPYY(4-36)], the inhibitory constant (Ki) in data set [1] worked out at 1.01 nM. Also, in “Solubility determination” (pH 6), the “Sol6” value came out at 9.8 mg/mL. Besides, in “Solubility determination” (pH 7), the “Sol7” value was found to be 5.7 mg/mL.
The corresponding values for `CC(C)CC(=O)N[C@@H](C)C(=O)N1CCC[C@H]1C(=O)N[C@@H](CCC(=O)O)C(=O)N[C@@H](CCCCNC(=O)CCCCCNC(=O)CC[C@H](NC(=O)CCCCCCCCCCCCCCCCC(=O)O)C(=O)O)C(=O)N1CCC[C@H]1C(=O)N[C@@H](CCC(=O)O)C(=O)N[C@@H](CCC(=O)O)C(=O)N[C@@H](CC(=O)O)C(=O)N[C@@H](C)C(=O)N[C@H](C(=O)N[C@@H](CC(C)C)C(=O)N[C@@H](CCC(=O)O)C(=O)N[C@@H](CCC(=O)O)C(=O)N[C@@H](CC(C)C)C(=O)N[C@@H](CCC(N)=O)C(=O)N[C@@H](CCCNC(=N)N)C(=O)N[C@@H](Cc1ccc(O)cc1)C(=O)N[C@@H](Cc1ccc(O)cc1)C(=O)N[C@H](C(=O)N[C@@H](CO)C(=O)N[C@@H](CC(C)C)C(=O)N[C@@H](CCCNC(=N)N)C(=O)N[C@@H](Cc1c[nH]cn1)C(=O)N[C@@H](Cc1ccc(O)cc1)C(=O)N[C@@H](Cc1ccc(O)cc1)C(=O)N[C@@H](CC(N)=O)C(=O)N[C@@H](Cc1c[nH]c2ccccc12)C(=O)N[C@@H](CC(C)C)C(=O)N[C@H](C(=O)N[C@@H](CCCNC(=N)N)C(=O)N[C@@H](CCC(N)=O)C(=O)N[C@@H](CCCNC(=N)N)C(=O)N[C@@H](Cc1ccc(O)cc1)C(N)=O)[C@@H](C)O)C(C)C)[C@@H](C)O` [Compound 102, N{alpha-4}-(3-methylbutanoyl)-N{epsilon-7}-(6-[(4S)-4-carboxy-4-(17-carboxyheptadecanamido)butanamido]hexanoyl)-[4A,7K,9E,13T,14L,18Q,22V,28Y,30W,31L]-hPYY(4-36)] are 7.15 nM, 10.0 mg/mL and 9.7 mg/mL.
The corresponding values for `CC[C@H](C)[C@H](NC(=O)[C@H](CCC(=O)O)NC(=O)[C@H](CCC(=O)O)NC(=O)[C@@H]1CCCN1C(=O)[C@H](CCC(=O)O)NC(=O)[C@H](C)NC(=O)[C@H](C)NC(=O)[C@H](C)NC(=O)[C@H](CCC(=O)O)NC(=O)[C@@H]1CCCN1C(=O)[C@H](CCCCNC(=O)CCCCCNC(=O)CC[C@H](NC(=O)CCCCCCCCCCCCCCCCC(=O)O)C(=O)O)NC(=O)[C@H](CCC(=O)O)NC(=O)[C@@H]1CCCN1C(=O)[C@H](C)NC(=O)CC(C)C)C(=O)N[C@@H](CCC(N)=O)C(=O)N[C@@H](CCCNC(=N)N)C(=O)N[C@@H](Cc1ccc(O)cc1)C(=O)N[C@@H](Cc1ccc(O)cc1)C(=O)N[C@H](C(=O)N[C@@H](CO)C(=O)N[C@@H](CC(C)C)C(=O)N[C@@H](CCCNC(=N)N)C(=O)N[C@@H](Cc1c[nH]cn1)C(=O)N[C@@H](Cc1ccc(O)cc1)C(=O)N[C@@H](Cc1ccc(O)cc1)C(=O)N[C@@H](CC(N)=O)C(=O)N[C@@H](Cc1c[nH]c2ccccc12)C(=O)N[C@@H](CC(C)C)C(=O)N[C@H](C(=O)N[C@@H](CCCNC(=N)N)C(=O)N[C@@H](CCC(N)=O)C(=O)N[C@@H](CCCNC(=N)N)C(=O)N[C@@H](Cc1ccc(O)cc1)C(N)=O)[C@@H](C)O)C(C)C` [Compound 124, N{alpha-4}-(3-methylbutanoyl)-N{epsilon-7}-(6-[(4S)-4-carboxy-4-(17-carboxyheptadecanamido)butanamido]hexanoyl)-[4A,7K,9E,10A,11A,13E,17I,18Q,22V,28Y,30W,31L]-hPYY(4-36)] (Isovaleryl-APEK([Ahx-γGlu-C18 diacid])PEAAAEPEEIQRYYVSLRHYYNWLTRQRY-NH2) are 3.07 nM, 9.7 mg/mL and above 10.0 mg/mL.
Turning to `CC(C)CC(=O)N[C@@H](C)C(=O)N1CCC[C@H]1C(=O)N[C@@H](CCC(=O)O)C(=O)N[C@@H](CCCCNC(=O)CCCCCNC(=O)CC[C@H](NC(=O)CCCCCCCCCCCCCCCCC(=O)O)C(=O)O)C(=O)N1CCC[C@H]1C(=O)N[C@@H](CCC(=O)O)C(=O)N[C@@H](CCC(=O)O)C(=O)N[C@@H](CC(=O)O)C(=O)N[C@@H](C)C(=O)N[C@@H](CCC(=O)O)C(=O)N1CCC[C@H]1C(=O)N[C@@H](CCC(=O)O)C(=O)N[C@@H](CCC(=O)O)C(=O)N[C@@H](CC(C)C)C(=O)N[C@@H](CCC(N)=O)C(=O)N[C@@H](CCCNC(=N)N)C(=O)N[C@@H](Cc1ccc(O)cc1)C(=O)N[C@@H](Cc1ccc(O)cc1)C(=O)N[C@H](C(=O)N[C@@H](CO)C(=O)N[C@@H](CC(C)C)C(=O)N[C@@H](CCCNC(=N)N)C(=O)N[C@@H](Cc1c[nH]cn1)C(=O)N[C@@H](Cc1ccc(O)cc1)C(=O)N[C@@H](Cc1ccc(O)cc1)C(=O)N[C@@H](CCC(N)=O)C(=O)N[C@@H](Cc1c[nH]c2ccccc12)C(=O)N[C@@H](CC(C)C)C(=O)N[C@H](C(=O)N[C@@H](CCCNC(=N)N)C(=O)N[C@@H](CCC(N)=O)C(=O)N[C@@H](CCCNC(=N)N)C(=O)N[C@@H](Cc1ccc(O)cc1)C(N)=O)[C@@H](C)O)C(C)C` [Compound 68, N{alpha-4}-(3-methylbutanoyl)-N{epsilon-7}-(6-[(4S)-4-carboxy-4-(17-carboxyheptadecanamido)butanamido]hexanoyl)-[4A,7K,9E,13E,18Q,22V,28Y,29Q,30W,31L]-hPYY(4-36)], the inhibitory constant (Ki) in data set [1] was determined as 9.07 nM. For the same compound, the “Sol6” value in the data set “Solubility determination” (pH 6) was determined as 9.9 mg/mL. Besides, the “Sol7” value in “Solubility determination” (pH 7) is 10.0 mg/mL.

Values taken from patent publication US12391737B2, “Soluble NPY2 receptor agonists” (Boehringer Ingelheim International GmbH, priority 2020, dated 2025).
